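Dose response: 5 concentrations. Exposure: 48 h. Format: 96-well plates. Endpoint: linear interpolation; highest concentration if not reached. GI50 marks 50% less growth.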 Calls of active or inactive are those of the source. No stated cut-off is given here; in the data, active = GI50 up to about 1.1 µM and inactive = higher.
Experiments:
Assay in all cases: growth of human tumour cells (NCI), 48 h
SF-295 = system: SF-295
COLO 205 = system: COLO 205
MOLT-4 = system: MOLT-4
SNB-19 = system: SNB-19
NCI-H522 = system: NCI-H522
NCI-H460 = system: NCI-H460
UACC-62 = system: UACC-62
U-251 = system: U-251
MDA-MB-435 = system: MDA-MB-435
Hs-578T = system: Hs-578T
A549 = system: A549
OVCAR-3 = system: OVCAR-3
SF-268 = system: SF-268
OVCAR-8 = system: OVCAR-8
BT-549 = system: BT-549
Malme-3M = system: Malme-3M
NCI-H226 = system: NCI-H226
SNB-75 = system: SNB-75
SK-OV-3 = system: SK-OV-3

Compound	GI50 (SF-295)	GI50 (COLO 205)	GI50 (MOLT-4)	GI50 (SNB-19)	GI50 (NCI-H522)	GI50 (NCI-H460)	GI50 (UACC-62)	GI50 (U-251)	GI50 (MDA-MB-435)	GI50 (Hs-578T)	GI50 (A549)	GI50 (OVCAR-3)	GI50 (SF-268)	GI50 (OVCAR-8)	GI50 (BT-549)	GI50 (Malme-3M)	GI50 (NCI-H226)	GI50 (SNB-75)	GI50 (SK-OV-3)
COc1ccc(N[S+]([O-])c2c(C)cc(C)cc2C)cc1 (stereo unspecified)	> 100 µM (inactive)	> 100 µM (inactive)	40.1 µM (inactive)	> 100 µM (inactive)	19.1 µM (inactive)	35.6 µM (inactive)	33.7 µM (inactive)	50 µM (inactive)	21.2 µM (inactive)	34.4 µM (inactive)	26.4 µM (inactive)	61.9 µM (inactive)	21.6 µM (inactive)	72.1 µM (inactive)	1.79 µM (inactive)	20.3 µM (inactive)	36.2 µM (inactive)	–	–
Cn1c2ccccc2n2c(=O)c(-c3ccc(Cl)cc3)nnc12	> 100 µM (inactive)	> 100 µM (inactive)	> 100 µM (inactive)	> 100 µM (inactive)	> 100 µM (inactive)	> 100 µM (inactive)	–	> 100 µM (inactive)	> 100 µM (inactive)	> 100 µM (inactive)	> 100 µM (inactive)	–	> 100 µM (inactive)	> 100 µM (inactive)	> 100 µM (inactive)	> 100 µM (inactive)	> 100 µM (inactive)	> 100 µM (inactive)	–
O=[As](O)(O)c1ccc2nc3cc([As](=O)(O)O)ccc3nc2c1	> 100 µM (inactive)	–	> 100 µM (inactive)	> 100 µM (inactive)	> 100 µM (inactive)	> 100 µM (inactive)	> 100 µM (inactive)	> 100 µM (inactive)	> 100 µM (inactive)	> 100 µM (inactive)	> 100 µM (inactive)	> 100 µM (inactive)	> 100 µM (inactive)	> 100 µM (inactive)	> 100 µM (inactive)	> 100 µM (inactive)	> 100 µM (inactive)	> 100 µM (inactive)	–
CC(=O)Nc1ccc2nncnc2c1	> 100 µM (inactive)	> 100 µM (inactive)	> 100 µM (inactive)	> 100 µM (inactive)	> 100 µM (inactive)	> 100 µM (inactive)	> 100 µM (inactive)	> 100 µM (inactive)	> 100 µM (inactive)	77.6 µM (inactive)	> 100 µM (inactive)	> 100 µM (inactive)	> 100 µM (inactive)	> 10 µM (inactive)	> 100 µM (inactive)	–	> 100 µM (inactive)	> 100 µM (inactive)	> 100 µM (inactive)
Cc1c(C#N)c2nnn(-c3cccc(Cl)c3)c(=O)n2c1-c1ccccc1	1.45 µM (inactive)	0.849 µM (active)	–	10.3 µM (inactive)	1.93 µM (inactive)	3.15 µM (inactive)	4.43 µM (inactive)	2.33 µM (inactive)	0.566 µM (active)	6.64 µM (inactive)	4.5 µM (inactive)	1.65 µM (inactive)	6.81 µM (inactive)	5.31 µM (inactive)	18.1 µM (inactive)	9.48 µM (inactive)	2.25 µM (inactive)	1.76 µM (inactive)	3.08 µM (inactive)
CCOC(=O)c1cc2cc([N+](=O)[O-])ccc2oc1=O	> 100 µM (inactive)	> 100 µM (inactive)	> 100 µM (inactive)	> 100 µM (inactive)	> 100 µM (inactive)	69.5 µM (inactive)	24.3 µM (inactive)	> 100 µM (inactive)	> 100 µM (inactive)	> 100 µM (inactive)	> 100 µM (inactive)	> 100 µM (inactive)	39.3 µM (inactive)	> 100 µM (inactive)	> 100 µM (inactive)	> 100 µM (inactive)	> 100 µM (inactive)	> 100 µM (inactive)	–
CCOC(=O)c1nc2cc(C(F)(F)F)ccc2nc1Nc1ccc(OC)c(OC)c1	> 100 µM (inactive)	> 100 µM (inactive)	> 100 µM (inactive)	> 100 µM (inactive)	> 100 µM (inactive)	> 100 µM (inactive)	> 100 µM (inactive)	–	> 100 µM (inactive)	41.7 µM (inactive)	> 100 µM (inactive)	> 100 µM (inactive)	> 100 µM (inactive)	> 100 µM (inactive)	> 100 µM (inactive)	> 100 µM (inactive)	–	50.9 µM (inactive)	> 100 µM (inactive)
CCN(CC)c1ccc2cc(-c3nc(O)c4ccccc4n3)c(=N)oc2c1	> 100 µM (inactive)	> 100 µM (inactive)	> 100 µM (inactive)	> 100 µM (inactive)	> 100 µM (inactive)	> 100 µM (inactive)	> 100 µM (inactive)	> 100 µM (inactive)	> 100 µM (inactive)	> 100 µM (inactive)	> 100 µM (inactive)	–	> 100 µM (inactive)	> 100 µM (inactive)	> 100 µM (inactive)	> 100 µM (inactive)	> 100 µM (inactive)	> 100 µM (inactive)	> 100 µM (inactive)
Cc1nnc([C@@]2(C)CC[C@H]3[C@@H](CC=C4C[C@@H](O)CC[C@@]43C)[C@@H]2CC#N)o1	> 100 µM (inactive)	> 100 µM (inactive)	> 100 µM (inactive)	> 100 µM (inactive)	22.5 µM (inactive)	–	> 100 µM (inactive)	> 100 µM (inactive)	> 100 µM (inactive)	11.6 µM (inactive)	> 100 µM (inactive)	> 100 µM (inactive)	> 100 µM (inactive)	> 100 µM (inactive)	> 100 µM (inactive)	> 100 µM (inactive)	> 100 µM (inactive)	27 µM (inactive)	> 100 µM (inactive)
C/C=C(/C)C(=O)O[C@H]1CCN2CC=C(COC(=O)[C@@](O)([C@H](C)OC)C(C)(C)O)[C@H]12	> 100 µM (inactive)	> 100 µM (inactive)	> 100 µM (inactive)	> 100 µM (inactive)	> 100 µM (inactive)	> 10 µM (inactive)	> 100 µM (inactive)	> 100 µM (inactive)	> 100 µM (inactive)	> 100 µM (inactive)	> 100 µM (inactive)	> 100 µM (inactive)	> 100 µM (inactive)	> 100 µM (inactive)	> 100 µM (inactive)	–	> 100 µM (inactive)	> 100 µM (inactive)	> 100 µM (inactive)
Cn1c(N=[N+]=[N-])cc(=O)n(C)c1=O	> 100 µM (inactive)	> 100 µM (inactive)	> 100 µM (inactive)	> 100 µM (inactive)	> 100 µM (inactive)	> 100 µM (inactive)	> 100 µM (inactive)	> 100 µM (inactive)	> 100 µM (inactive)	> 100 µM (inactive)	> 100 µM (inactive)	> 100 µM (inactive)	> 100 µM (inactive)	> 100 µM (inactive)	> 100 µM (inactive)	> 100 µM (inactive)	> 100 µM (inactive)	–	> 100 µM (inactive)
O=c1cc(NNc2cccc(F)c2)[nH]c(=S)[nH]1	> 100 µM (inactive)	77.1 µM (inactive)	–	> 100 µM (inactive)	–	> 100 µM (inactive)	–	54.6 µM (inactive)	> 100 µM (inactive)	> 100 µM (inactive)	> 100 µM (inactive)	26.9 µM (inactive)	1.97 µM (inactive)	> 100 µM (inactive)	> 100 µM (inactive)	> 100 µM (inactive)	> 100 µM (inactive)	–	–
O=C(NC1=NC2C=CC([N+](=O)[O-])=CC2S1)C(=O)Nn1c(S)nc2ccccc2c1=O (stereo unspecified)	88.9 µM (inactive)	–	63 µM (inactive)	24.3 µM (inactive)	47.3 µM (inactive)	80.5 µM (inactive)	92 µM (inactive)	66.7 µM (inactive)	> 100 µM (inactive)	39.4 µM (inactive)	> 100 µM (inactive)	> 100 µM (inactive)	99.3 µM (inactive)	87.1 µM (inactive)	65.8 µM (inactive)	80 µM (inactive)	18.8 µM (inactive)	47.1 µM (inactive)	63 µM (inactive)
CCCCCC/C=C\CCCCCCCCCC1=C(CN2CCN(C)CC2)C(=O)C=C(OC)C1=O	6.3 µM (inactive)	1.71 µM (inactive)	0.353 µM (active)	11.8 µM (inactive)	1.55 µM (inactive)	5.73 µM (inactive)	12.9 µM (inactive)	–	8.65 µM (inactive)	6.03 µM (inactive)	3.83 µM (inactive)	6.76 µM (inactive)	5.61 µM (inactive)	4.53 µM (inactive)	3.87 µM (inactive)	2.79 µM (inactive)	14.2 µM (inactive)	1.62 µM (inactive)	13.2 µM (inactive)
C=C1CC(O)C2C(=C)C(=O)OC2C2C(C)C(=O)CC12 (stereo unspecified)	27.6 µM (inactive)	7.33 µM (inactive)	7.03 µM (inactive)	18.8 µM (inactive)	5.16 µM (inactive)	24.5 µM (inactive)	15.3 µM (inactive)	23 µM (inactive)	11.3 µM (inactive)	19.1 µM (inactive)	20.3 µM (inactive)	11.6 µM (inactive)	22.2 µM (inactive)	21.3 µM (inactive)	7.87 µM (inactive)	12 µM (inactive)	–	15.1 µM (inactive)	33 µM (inactive)

Reference: ChEMBL document CHEMBL1201862, “PubChem BioAssay data set” (2004)
